# Target: T1, PmrA (Salmonella enterica, UniProt A0A0F6BAF1)
# T1 construct: gene basR
# Assay: isothermal titration calorimetry
# Type: binding
# T1 sequence (A0A0F6BAF1 entry or part of it): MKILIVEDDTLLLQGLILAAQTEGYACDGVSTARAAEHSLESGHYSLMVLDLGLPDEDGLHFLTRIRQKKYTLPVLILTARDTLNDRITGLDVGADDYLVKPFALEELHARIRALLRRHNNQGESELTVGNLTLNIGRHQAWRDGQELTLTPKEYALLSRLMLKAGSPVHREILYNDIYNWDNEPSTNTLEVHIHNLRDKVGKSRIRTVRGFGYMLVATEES
compound,measurement,value
C=CCc1ccc(O)c(-c2cc(CC=C)ccc2O)c1 [magnolol],Kd,2 µM
